Results as given in patent publication US20250320253A1, “TRANSMEMBRANE PEPTIDIC ANTAGONISTS OF PLEXIN-A1 AND THEIR THERAPEUTIC USES” (UNIVERSITE DE STRASBOURG, priority 2021, published 2025).
“Also recorded” adds a separate entry of the source. Ends that are not written are not given here.

Assays:
[1] = tested on: oligodendrocyte cell line Oli-neu; assay: Cell migration assay (Transwell CIM-Plate, xCELLigence), rescue of Sema3A negative effect; type: cell-based; conditions: 20 ng/ml Sema3A
Protocol: Cells were pre-incubated 1 h with vehicle alone or MTP. The 1×10^5 cells were seeded in the upper chamber with 150 μl of medium. The bottom well contained 160 μl of medium supplemented with 2% fetal bovine serum for chemoattraction and 20 ng/ml Sema3A (Recombinant Mouse Semaphorin 3A Fc Chimera Protein Carrier Free ref: 5926-S3/CF; RnD Systems) for repulsion. Analysis was performed after 8 h of migration according to the manufacturer's instructions. Data are expressed as a percentage of positive control migration, i.e. the migration of Oli-neu with 2% serum and without Sema3A.

[2] = target: T1, NRP1-PlexinA1 interaction (Mus musculus, UniProt P70206); assay: Proximity ligation assay of Neuropilin-1/Plexin-A1 receptor dimers in Oli-neu cells; type: cell-based; conditions: for Normalized interactions Nrp1-PlexinA1/cell: Oli-neu cells treated with peptides at 10^−7 M, vehicle 100; for reduction of the number of NRP1/PlexinA1 interactions: 10^−7 M
T1 construct: endogenous in cells; host or cells: Oli-neu cells
Protocol: After fixation with 1% PFA for 10 min, slices were permeabilized with PBS/0.1% Triton X-100. Primary antibodies (NRP1 from Evitria, 1:500; and Plexin-A1 from Abcam, ab23391, 1:200) were incubated overnight at 4° C. in PBS. The proximity ligation assay allowing to visualize receptor dimers (Neuropilin-1/Plexin-A1) was then performed according to the manufacturer's recommendations with the “detection orange” kit (Sigma). Quantification of the interactions (fluorescent dots at the cell surface) was performed using ImageJ software.

[3] = MTP solubility in PBS and PBS/LDS; type: physicochemical
Protocol: The solubility of the MTPs was tested either in phosphate buffered saline (PBS) or in a mixture of PBS and lithium dodecyl sulfate (LDS).

[4] = tested on: cuprizone-induced demyelination; conditions: mouse, in vivo
Protocol: It was next assessed whether […] can induce remyelination of the CNS and motor function recovery following demyelination induced by cuprizone, a copper-chelating agent, in a mouse model. Oral intoxication with cuprizone induces oligodendrocyte apoptosis within a few days, which is closely followed by the activation of the innate immune cells in the brain, i.e., astrocytes and microglia, finally leading to demyelination of distinct white and grey matter brain areas. […] (10 μg/kg) for 6 consecutive days (n=10) • (e) 5 weeks cuprizone, followed by treatment with […] (100 μg/kg) for 6 consecutive days (n=10) • (f) 5 weeks cuprizone, followed by treatment with vehicle for 11 consecutive days (n=10) • (g) 5 weeks cuprizone, followed by treatment with […] (10 μg/kg) for 11 consecutive days (n=10) • (h) 5 weeks cuprizone, followed by treatment with […] (100 μg/kg) for 11 consecutive days (n=10) Acute demyelination was induced by intoxicating for five consecutive weeks 8-week-old (19-21 g) male mice a diet containing 0.25% cuprizone [bis(cyclohexanone)oxaldihydrazone; Sigma-Aldrich Inc., St Louis, MO, USA] mixed into a ground standard rodent chow. […]

[5] = target: Plexin-A1 (on Oli-neu cells) (UniProt P70206); assay: proximity ligation assay on Oli-neu cells, peptide at 10^-7 M for 1 h; NRP1/Plexin-A1 dimers counted
[6] = target: Plexin-A1 (on Oli-neu cells) (UniProt P70206); assay: proximity ligation assay on Oli-neu cells, dose response; inhibition of NRP1/Plexin-A1 interactions
[7] = Solubilization vehicle PBS 100%

Molecule	Normalized interactions Nrp1-PlexinA1/cell [2]	Measured concentration [3, 7] [µM]	Normalized interactions Nrp1-PlexinA1/cell (normalized to vehicle = 100) [5]	also measured
TLPAIVSIGGGVVLLLEVIVEVAYEEEEE [MIMMING]	49.4	–	–	rescue of Sema3A negative effect on migration ([1]; 8 h of migration): able to counteract; also recorded: rescue migration; reduction of the number of NRP1/PlexinA1 interactions ([2]; Oli-neu cells): −51%; IC50 ([2]; Oli-neu cells, dose response, read-out: IC50, number of NRP1/PlexinA1 interactions): 17 nM
TLPAIGVITLVGLGVLELVAEGVYEEEEE [HODR, reference compound]	–	189	–	–
TLPAIVGIGGGGGLLLLVIVAVLIAYKRK [MTP-PlexA1, reference compound]	–	0	–	Measured concentration ([3]; Solubilization vehicle PBS 100% LDS 72 mM): 360 µM
TLPAIVGIGGGGGELLLVIVEVLIYEEEEE [RATI]	–	224	–	–
TLPAITGLVGGVGLLLEVIVEVAYEEEEE [GUNGNIR]	40.4	248	–	IC50 ([1]; n=3): 1.2 nM; reduction of the number of NRP1/PlexinA1 interactions ([2]; Oli-neu cells): −60%; body weight [4]: no differences were observed; percentage loss of body weight relative to vehicle-treated groups [4]: significantly less pronounced
TLPAIVGIGGGGGLLLEVIVEVLIAYEEEEE [DRAUPNIR]	–	260	–	–
TLPVIGVIVLVGSAVLELIAEGVYEEEEE [SURTR, reference compound]	96.8	–	–	–
TLPAIVSIGGGVVLLLEVIVEVAYEEEEE [MIMMING]	–	–	49.4	–
TLPAITGLVGGVGLLLEVIVEVAYEEEEE [GUNGNIR]	–	–	40.4	IC50 [6]: 0.074 nM
TLPVIGVIVLVGSAVLELIAEGVYEEEEE [SURTR]	–	–	96.8	–
